Holding throughout (type): cell-based
Test [1] relates to T-Rex 293 cells having increased expression of estrogen receptor alpha protein. As to the kind of experiment: Cellular growth inhibition assay, T-Rex 293 cells, (+) doxycycline. The note with it: T-REx-293, 72 h, 72 hours. The essentials:
(§1)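 Cells of an inducible ERα-expressing T-Rex 293 clone are seeded in charcoal-dextran FBS medium with or without 3 ng/mL doxycycline, then treated after 24 h with compound dilutions (0.5% DMSO) for 72 h. Growth inhibition is measured by CellTiter-Glo luminescence and expressed as GI50.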

Test [2] deals with T-Rex 293 cells lacking increased expression of estrogen receptor alpha protein. As to the kind of experiment: Cellular growth inhibition assay, T-Rex 293 cells, (−) doxycycline. The settings on record: T-REx-293, 72 h, 72 hours. In short, it runs like this: as §1
Test [3] deals with MCF7 cells (ATCC #HTB-22). As to the kind of experiment: Cellular growth inhibition assay, MCF7 cells purchased from ATCC. The note with it: Homo sapiens, MCF7, 144 h, Table 8-A; MCF7 cells purchased from ATCC; six days; CellTiter-Glo; read-out: GI50. In short, it runs like this: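 GI50 values come from a four-parameter fit of CellTiter-Glo 2.0 luminescence after six days of compound exposure at 37° C. Seeding density depended on the source: 225 cells/well for ECACC MCF7, 1,500 for ATCC. Medium was RPMI 1640 with 10% FBS and 0.2 U/ml insulin.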

The mark [4] stands for this setting: Table 7-A, T-Rex 293 cells with doxycycline (increased ERα expression), CellTiter-Glo, read-out: (+) Dox GI50.
Where [5] appears, read: Table 7-A, T-Rex 293 cells without doxycycline (lacking increased ERα expression), CellTiter-Glo, read-out: (−) Dox GI50.
The mark [6] stands for this setting: T-Rex 293 cells with doxycycline-induced ERα expression, CellTiter-Glo 2.0, read-out: (+) Dox TRex ERa (GI50).
[7] abbreviates: T-Rex 293 cells without doxycycline, CellTiter-Glo 2.0, read-out: (−) Dox TRex ERa (GI50).

Read-outs that look alike come from different tables or passages of the source.

Broadly, the GI50 is the concentration at which growth is held to half of that of the control.

Take `Cc1sc2c(c1C)C(c1ccc(C3CN(C[C@H]4CC[C@H](CN5CC(c6ccc([C@@H]7c8ccc(O)cc8CC[C@@H]7c7ccccc7)cc6)C5)CC4)C3)cc1)=N[C@@H](C)c1nnc(C)n1-2` [III-234]: the GI50 in test [1] (setting [4]) was under 50 nM; in test [2] (setting [5]) it was 500 to 2500 nM; in test [3], 50 to 500 nM.

As for `Cc1sc2c(c1C)C(c1ccc(C3CN(C(=O)C4CCN(c5ccc([C@@H]6c7ccc(O)cc7CC[C@@H]6c6ccccc6)cc5)CC4)C3)cc1)=N[C@@H](C)c1nnc(C)n1-2` [III-142], the GI50 in test [1] (setting [4]), in test [2] (setting [5]) and in test [3] was 50 to 500 nM each time.

On to `Cc1sc2c(c1C)C(c1ccc(CCN3CC4(CCN(c5ccc([C@@H]6c7ccc(O)cc7CC[C@@H]6c6ccccc6)cc5)CC4)C3)cc1)=N[C@@H](C)c1nnc(C)n1-2` [III-98], for which the GI50 in test [1] (setting [4]) is under 50 nM; in test [2] (setting [5]), 500 to 2500 nM; in test [3], 50 to 500 nM.

For the compound `Cc1sc2c(c1C)C(c1ccc(N3CCN(CCN4CC[C@H](Oc5ccc(C6=C(c7ccc(Cl)cc7Cl)CCCc7cc(C(=O)O)ccc76)cc5)C4)CC3)cc1)=N[C@@H](C)c1nnc(C)n1-2` [IV-2], the GI50 in test [1] (setting [4]) is 50 to 500 nM; in test [2] (setting [5]), 500 to 2500 nM; in test [3], 50 to 500 nM.

Consider `Cc1sc2c(c1C)C(c1ccc(N3CC4(CC(CN5CCN(c6cc(F)c([C@H]7c8ccc(O)cc8CC[C@H]7c7ccccc7)c(F)c6)CC5)C4)C3)cc1)=N[C@@H](C)c1nnc(C)n1-2` [III-278], for which the results for the GI50 in test [1] (setting [4]), in test [2] (setting [5]) and in test [3] were 50 to 500 nM, 500 to 2500 nM and 50 to 500 nM, respectively.

Take `Cn1cc(-c2cc(C(C)(C)O)ccc2Oc2ccc(N3CC(CC4CCN(c5ccc(C(=O)c6c(-c7ccc(O)cc7)sc7cc(O)ccc67)cc5)CC4)C3)cc2)c2cc[nH]c2c1=O` [I-22, 4-(2-(4-(3-((1-(4-(6-hydroxy-2-(4-hydroxyphenyl)benzo[b]thiophene-3-carbonyl)phenyl)piperidin-4-yl)methyl)azetidin-1-yl)phenoxy)-5-(2-hydroxy-propan-2-yl)phenyl)-6-methyl-1,6-dihydro-7H-pyrrolo[2,3-c]pyridin-7-one]: the GI50 in test [1] (setting [6]) is under 50 nM; in test [2] (setting [7]), 50 to 500 nM; in test [3], under 50 nM.

With `CCN(CCOCCOCCOCCOCCNC(=O)C[C@@H]1N=C(c2ccc(Cl)cc2)c2c(sc(C)c2C)-n2c(C)nnc21)CCOc1ccc(C(=O)c2c(-c3ccc(O)cc3)sc3cc(O)ccc23)cc1` [I-4, (S)-2-(4-(4-chlorophenyl)-2,3,9-trimethyl-6H-thieno[3,2-f][1,2,4]triazolo[4,3-a][1,4]diazepin-6-yl)-N-(3-ethyl-1-(4-(6-hydroxy-2-(4-hydroxyphenyl)benzo[b]thiophene-3-carbonyl)phenoxy)-6,9,12,15-tetraoxa-3-azaheptadecan-17-yl) acetamide], the GI50 in test [1] (setting [6]) was under 50 nM; in test [2] (setting [7]), 500 to 2500 nM; in test [3], 50 to 500 nM.

For the compound `Cc1cc([C@H]2c3ccc(O)cc3CC[C@H]2c2ccc(F)cc2)ccc1N1CCN(CC2(O)CCN(c3ccc(C4=N[C@@H](C)c5nnc(C)n5-c5sc(C)c(C)c54)cc3)CC2)CC1` [III-283], the GI50 in test [1] (setting [4]) lay within 50 to 500 nM; in test [2] (setting [5]), 500 to 2500 nM; in test [3] it was 50 to 500 nM.

`CC1=C(c2c(F)cc(F)cc2F)[C@H](c2ccc(N3CCC(CN4CCC5(CC4)CN(c4ccc(C6=N[C@@H](C)c7nnc(C)n7-c7sc(C)c(C)c76)cc4)C5)CC3)cc2)Oc2ccc(O)cc21` [V-19]: the GI50 in test [1] (setting [4]) is under 50 nM; in test [2] (setting [5]), 500 to 2500 nM; in test [3], under 50 nM.

On to `Cc1sc2c(c1C)C(c1ccc(N3CCC(O)(CN4CCN(c5ccc(C6=C(c7ccccc7)CCCc7cc(B(O)O)ccc76)cc5)CC4)CC3)cc1)=N[C@@H](C)c1nnc(C)n1-2` [IV-63], for which the GI50 in test [1] (setting [4]) is under 50 nM; in test [2] (setting [5]) it was 500 to 2500 nM; in test [3] it was under 50 nM.

With `Cc1sc2c(c1C)C(c1ccc(NCC3CCN(CCOc4ccc([C@@H]5c6ccc(O)cc6CC[C@@H]5c5ccccc5)cc4)CC3)cc1)=NC(Cc1ncco1)c1nnc(C)n1-2` (stereo partly drawn) [III-33], the GI50 in test [1] (setting [4]) is under 50 nM; in test [2] (setting [5]) it was 50 to 500 nM; in test [3] it was 50 to 500 nM.

Turning to `Cc1sc2c(c1C)C(c1ccc(N3CCC(O)(CN4CCN(c5ccc(C6=C(c7ccccc7Cl)CCCc7cc(C(=O)O)ccc76)c(F)c5)CC4)CC3)cc1)=N[C@@H](C)c1nnc(C)n1-2` [IV-34], the GI50 is under 50 nM in test [1] (setting [4]), 50 to 500 nM in test [2] (setting [5]) and under 50 nM in test [3].

Turning to `Cc1sc2c(c1C)C(c1ccc(N3CCCN(CCCNCCOc4ccc([C@@H]5c6ccc(O)cc6CC[C@@H]5c5ccccc5)cc4)CC3)cc1)=NC(Cc1ncco1)c1nnc(C)n1-2` (stereo partly drawn) [III-42], the GI50 in test [1] (setting [4]) was under 50 nM; in test [2] (setting [5]), 50 to 500 nM; in test [3], 50 to 500 nM.

Consider `Cc1sc2c(c1C)C(c1ccc(N3CC4(CCC(O)(CN5CCC(c6ccc([C@@H]7c8ccc(O)cc8CC[C@@H]7c7ccccc7)cc6)CC5)CC4)C3)cc1)=N[C@@H](C)c1nnc(C)n1-2` [III-206], for which the 50% growth inhibitory concentration (GI50) in test [1] (setting [4]) was under 50 nM; in test [2] (setting [5]) it was 500 to 2500 nM; in test [3], under 50 nM.

As for `Cc1sc2c(c1C)C(c1ccc(N3CC4(CC(CN5CCN(c6ccc(C7=C(c8ccccc8Cl)CCCc8cc(C(=O)O)ccc87)cc6)CC5)C4)C3)cc1)=N[C@@H](C)c1nnc(C)n1-2` [IV-59], the figures for the GI50 in test [1] (setting [4]), in test [2] (setting [5]) and in test [3] were under 50 nM, 500 to 2500 nM and under 50 nM, respectively.

`Cc1sc2c(c1C)C(c1ccc(N3CC(CC4(O)CN(CC5CN(c6ccc([C@@H]7c8ccc(O)cc8CC[C@@H]7c7ccccc7)cc6)C5)C4)C3)cc1)=NC(C)c1nnc(C)n1-2` (stereo partly drawn) [III-240]: the results for the concentration for 50% growth inhibition (GI50) in test [1] (setting [4]), in test [2] (setting [5]) and in test [3] were under 50 nM, 50 to 500 nM and under 50 nM, respectively.

In the case of `Cc1sc2c(c1C)C(c1ccc(CC3CC4(CCN(c5ccc([C@@H]6c7ccc(O)cc7CC[C@@H]6c6ccccc6)cc5)CC4)C3)cc1)=N[C@@H](Cc1ncco1)c1nnc(C)n1-2` [I-62, (5R,6S)-6-phenyl-5-(4-(2-(4-((S)-2,3,9-trimethyl-6-(oxazol-2-ylmethyl)-6H-thieno[3,2-f][1,2,4]triazolo[4,3-a][1,4]diazepin-4-yl)benzyl)-7-azaspiro[3.5]nonan-7-yl)phenyl)-5,6,7,8-tetrahydronaphthalen-2-ol], the figures for the GI50 in test [1] (setting [4]), in test [2] (setting [5]) and in test [3] were 50 to 500 nM, 500 to 2500 nM and over 2500 nM, respectively.

With `CC1=C(c2c(F)cc(F)cc2F)[C@H](c2ccc(OCC(=O)N3CCC4(CC3)CCN(c3ccc(C5=N[C@@H](C)c6nnc(C)n6-c6sc(C)c(C)c65)cc3)C4)cc2)Oc2ccc(O)cc21` [V-27], the GI50 is under 50 nM in test [1] (setting [4]), 500 to 2500 nM in test [2] (setting [5]) and 50 to 500 nM in test [3].

Regarding `Cc1sc2c(c1C)C(c1ccc(N3CCC(O)(CN4CCN(c5ccc(C6=C(c7ccccc7)CCCc7cc(O)ccc76)cc5)CC4)CC3)cc1)=N[C@@H](C)c1nnc(C)n1-2` [IV-17], the concentration for 50% growth inhibition (GI50) was under 50 nM in test [1] (setting [4]), 500 to 2500 nM in test [2] (setting [5]) and under 50 nM in test [3].

`COc1cc([C@@H]2c3ccc(O)cc3CC[C@@H]2c2ccc(F)cc2)ccc1N1CCN(CC2(O)CCN(c3ccc(C4=N[C@@H](C)c5nnc(C)n5-c5sc(C)c(C)c54)cc3)CC2)CC1` [III-255]: the GI50 in test [1] (setting [4]) was under 50 nM; in test [2] (setting [5]), 500 to 2500 nM; in test [3], 50 to 500 nM.

In the case of `Cc1sc2c(c1C)C(c1ccc(CC(=O)N3CCC4(CCN(c5ccc(C6=C(c7ccc(Cl)cc7Cl)CCCc7cc(C(=O)O)ccc76)cc5)CC4)C3)cc1)=N[C@@H](C)c1nnc(C)n1-2` [IV-12], the GI50 was in the range of 50 to 500 nM in test [1] (setting [4]), 500 to 2500 nM in test [2] (setting [5]) and 50 to 500 nM in test [3].

Consider `Cc1sc2c(c1C)C(c1ccc(Cl)cc1)=N[C@@H](CC(=O)NCCCCCCCOc1ccc(C(=O)c3c(-c4ccc(O)cc4)sc4cc(O)ccc34)cc1)c1nnc(C)n1-2` [I-16, (S)-2-(4-(4-chlorophenyl)-2,3,9-trimethyl-6H-thieno[3,2-f][1,2,4]triazolo[4,3-a][1,4]diazepin-6-yl)-N-(7-(4-(6-hydroxy-2-(4-hydroxyphenyl)benzo[b]thiophene-3-carbonyl)phenoxy)heptyl)acetamide], for which the GI50 in test [1] (setting [6]) was over 2500 nM; in test [2] (setting [7]), over 2500 nM; in test [3], 50 to 500 nM.

Regarding `Cc1sc2c(c1C)C(c1ccc(N3CCC(O)(CN4CCN(c5ccc([C@H]6c7ccc(O)cc7CC[C@H]6c6ccc(F)c(F)c6)c(F)c5)CC4)CC3)cc1)=N[C@@H](C)c1nnc(C)n1-2` [III-269], the GI50 in test [1] (setting [4]), in test [2] (setting [5]) and in test [3] was 50 to 500 nM each time.

As to `Cc1sc2c(c1C)C(c1ccc(N3CC(CC4CCN(CC5(F)CN(c6ccc([C@@H]7c8ccc(O)cc8CC[C@@H]7c7ccccc7)cc6)C5)CC4)C3)cc1)=N[C@@H](C)c1nnc(C)n1-2` [III-151], the figures for the GI50 in test [1] (setting [4]), in test [2] (setting [5]) and in test [3] were under 50 nM, over 2500 nM and under 50 nM, respectively.

Regarding `Cc1sc2c(c1C)C(c1ccc(N3CCC(O)(CN4CCN(c5ccc([C@H]6c7ccc(C(=O)O)cc7CC[C@H]6c6ccccc6)cc5)CC4)CC3)cc1)=N[C@@H](Cc1ncco1)c1nnc(C)n1-2` [III-199], the GI50 in test [1] (setting [4]), in test [2] (setting [5]) and in test [3] was over 2500 nM each time.
